# Data: ChEMBL document CHEMBL1817545, “Synthesis and molecular modeling of 1H-pyrrolopyrimidine-2,4-dione derivatives as ligands for the α1-adrenoceptors” (Bioorg Med Chem, 2011)
# Columns and labels:
# [1] = molecular target: T1, Adrenergic receptor alpha-1 (Rattus norvegicus, UniProt P15823+P23944+P43140); experiment: Displacement of [3H]prazosin from alpha1-ARs in CRL:CD(SD)BR-COBS rat brain cortex after 30 mins by liquid scintillation spectrometry
# T1 sequence (P15823 whole entry): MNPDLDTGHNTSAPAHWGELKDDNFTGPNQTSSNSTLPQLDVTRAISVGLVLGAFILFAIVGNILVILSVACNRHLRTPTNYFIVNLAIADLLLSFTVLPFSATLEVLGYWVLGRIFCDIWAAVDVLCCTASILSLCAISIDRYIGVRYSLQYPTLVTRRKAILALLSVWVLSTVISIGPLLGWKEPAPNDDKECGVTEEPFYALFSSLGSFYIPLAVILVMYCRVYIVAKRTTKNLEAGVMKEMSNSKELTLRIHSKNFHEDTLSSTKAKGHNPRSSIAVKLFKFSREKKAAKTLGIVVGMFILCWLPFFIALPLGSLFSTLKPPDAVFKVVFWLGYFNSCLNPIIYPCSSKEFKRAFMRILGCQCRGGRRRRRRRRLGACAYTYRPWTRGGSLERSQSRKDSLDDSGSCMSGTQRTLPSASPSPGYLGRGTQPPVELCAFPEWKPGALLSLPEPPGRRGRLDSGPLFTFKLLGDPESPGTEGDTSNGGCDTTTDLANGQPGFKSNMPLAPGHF
# T1 sequence (P23944 whole entry): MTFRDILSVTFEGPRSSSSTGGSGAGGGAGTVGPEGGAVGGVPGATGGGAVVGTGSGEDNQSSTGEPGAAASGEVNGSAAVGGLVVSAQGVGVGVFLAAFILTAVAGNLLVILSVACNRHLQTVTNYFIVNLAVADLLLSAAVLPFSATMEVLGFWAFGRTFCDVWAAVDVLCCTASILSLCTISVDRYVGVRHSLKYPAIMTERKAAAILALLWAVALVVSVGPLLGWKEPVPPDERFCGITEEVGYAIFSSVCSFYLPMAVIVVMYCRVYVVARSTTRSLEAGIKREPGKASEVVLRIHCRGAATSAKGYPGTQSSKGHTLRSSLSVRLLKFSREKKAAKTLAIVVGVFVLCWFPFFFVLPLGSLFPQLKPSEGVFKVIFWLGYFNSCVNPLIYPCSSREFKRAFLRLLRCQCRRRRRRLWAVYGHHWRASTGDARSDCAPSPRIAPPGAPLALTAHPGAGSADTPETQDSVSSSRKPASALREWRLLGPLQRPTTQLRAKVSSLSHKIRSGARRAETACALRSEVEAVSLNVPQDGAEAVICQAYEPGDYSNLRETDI
# T1 sequence (P43140 whole entry): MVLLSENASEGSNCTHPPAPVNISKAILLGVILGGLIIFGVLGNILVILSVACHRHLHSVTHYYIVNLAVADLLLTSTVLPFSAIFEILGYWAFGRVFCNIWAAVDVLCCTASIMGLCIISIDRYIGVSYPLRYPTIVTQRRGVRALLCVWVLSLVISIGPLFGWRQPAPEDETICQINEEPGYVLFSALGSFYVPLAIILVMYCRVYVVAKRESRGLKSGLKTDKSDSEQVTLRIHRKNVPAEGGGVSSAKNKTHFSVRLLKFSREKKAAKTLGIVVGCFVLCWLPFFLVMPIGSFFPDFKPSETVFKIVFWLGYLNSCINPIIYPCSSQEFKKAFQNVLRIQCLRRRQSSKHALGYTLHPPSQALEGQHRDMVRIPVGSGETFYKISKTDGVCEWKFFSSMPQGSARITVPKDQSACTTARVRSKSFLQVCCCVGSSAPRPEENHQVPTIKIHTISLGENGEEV
# Rattus norvegicus = organism: Rattus norvegicus; experiment: Ratio of Ki for CRL:CD(SD)BR-COBS rat brain hippocampus 5HT1A to Ki for CRL:CD(SD)BR-COBS rat brain cortex alpha1-AR; type: tissue-based
# [2] = molecular target: T2, 5-hydroxytryptamine receptor 1A (Rattus norvegicus, UniProt P19327); experiment: Displacement of [3H]-8-OH-DPAT from 5HT1A in CRL:CD(SD)BR-COBS rat brain hippocampus after 30 mins by liquid scintillation spectrometry; type: tissue-based
# T2 sequence (P19327 whole entry): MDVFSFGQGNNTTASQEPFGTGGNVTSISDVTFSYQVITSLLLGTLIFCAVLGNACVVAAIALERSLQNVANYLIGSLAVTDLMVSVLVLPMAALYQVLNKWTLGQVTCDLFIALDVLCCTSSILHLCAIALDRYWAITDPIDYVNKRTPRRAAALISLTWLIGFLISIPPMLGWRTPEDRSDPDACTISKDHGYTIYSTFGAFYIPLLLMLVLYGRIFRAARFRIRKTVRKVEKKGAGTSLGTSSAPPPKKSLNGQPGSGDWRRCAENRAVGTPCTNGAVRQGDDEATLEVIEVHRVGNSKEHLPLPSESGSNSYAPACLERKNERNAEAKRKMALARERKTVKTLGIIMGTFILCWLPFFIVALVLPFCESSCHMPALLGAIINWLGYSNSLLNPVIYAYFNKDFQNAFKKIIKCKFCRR
SMILES,Ki [1] [nM],Ratio Ki (Rattus norvegicus),Ki [2] [nM]
COc1ccccc1N1CCN(CCn2c(=O)[nH]c3[nH]c(-c4ccccc4)c(-c4ccccc4)c3c2=O)CC1,4.82,96.7,466
O=c1[nH]c2[nH]c(-c3ccc(OCCOc4ccccc4)cc3)cc2c(=O)n1CCN1CCN(c2ccccc2Cl)CC1,126,> 79,> 10000
COc1ccccc1N1CCN(CCn2c(=O)[nH]c3[nH]c(-c4ccc(OCc5ccccc5)cc4)cc3c2=O)CC1,10.31,76,784
COc1ccccc1N1CCN(CCn2c(=O)[nH]c3[nH]c(-c4ccc(OCCOc5ccccc5)cc4)cc3c2=O)CC1,53.63,> 186,> 10000
COc1ccc(-c2cc3c(=O)n(CCN4CCN(c5ccccc5Cl)CC4)c(=O)n(Cc4ccccc4OC)c3[nH]2)cc1,89.2,52.3,4670
O=c1[nH]c2[nH]c(-c3ccc(Oc4ccccc4)cc3)cc2c(=O)n1CCN1CCN(c2ccccc2Cl)CC1,125,37.8,4720
O=c1[nH]c2cc(-c3ccc(Cl)cc3)[nH]c2c(=O)n1CCN1CCN(c2ccccc2Cl)CC1,–,> 800,–
O=c1[nH]c2[nH]c(-c3ccc(Cl)cc3)cc2c(=O)n1CCN1CCN(c2ccccc2Cl)CC1,2.64,> 500,1510
COc1ccccc1N1CCN(CCn2c(=O)[nH]c3[nH]c(-c4ccc(-c5ccccc5)cc4)cc3c2=O)CC1,54.3,67.8,3680
O=c1c2cc(-c3ccccc3)[nH]c2n(Cc2ccccc2)c(=O)n1CCN1CCN(c2ccccc2Cl)CC1,35.41,28.8,1020
COc1ccccc1N1CCN(CCn2c(=O)c3cc(-c4ccccc4)[nH]c3n(Cc3ccccc3)c2=O)CC1,24.5,8.08,198
COc1ccc(-c2cc3c(=O)n(CCN4CCN(c5ccccc5OC)CC4)c(=O)n(Cc4ccccc4OC)c3[nH]2)cc1,15.86,11.6,184
COc1ccccc1N1CCN(CCn2c(=O)[nH]c3cc(-c4ccc(Cl)cc4)[nH]c3c2=O)CC1,–,> 1000,–
COc1ccccc1N1CCN(CCn2c(=O)[nH]c3cc(-c4ccco4)[nH]c3c2=O)CC1,3.38,8.54,28.9
O=c1[nH]c2[nH]c(-c3ccc(OCc4ccccc4)cc3)cc2c(=O)n1CCN1CCN(c2ccccc2Cl)CC1,70.91,> 141,> 10000
Cc1ccc(-c2c[nH]c3c(=O)n(CCN4CCN(c5ccccc5Cl)CC4)c(=O)[nH]c23)cc1,4.96,> 2000,> 10000
O=c1[nH]c2[nH]c(-c3ccccc3)c(-c3ccccc3)c2c(=O)n1CCN1CCN(c2ccccc2Cl)CC1,11.9,129,1540
COc1ccccc1N1CCN(CCn2c(=O)[nH]c3c(-c4ccccc4)c[nH]c3c2=O)CC1,2.08,6.44,13.4
COc1ccccc1N1CCN(CCn2c(=O)[nH]c3[nH]c(-c4ccc(Oc5ccccc5)cc4)cc3c2=O)CC1,43.71,0.39,17.1
O=c1[nH]c2c(-c3ccccc3Cl)c[nH]c2c(=O)n1CCN1CCN(c2ccccc2Cl)CC1,1.14,71.5,81.5
O=c1[nH]c2[nH]c(-c3ccc(-c4ccccc4)cc3)cc2c(=O)n1CCN1CCN(c2ccccc2Cl)CC1,183,> 54.6,> 10000
O=c1[nH]c2cc(-c3ccco3)[nH]c2c(=O)n1CCN1CCN(c2ccccc2Cl)CC1,14.17,15.5,220
O=c1[nH]c2c(-c3ccc(Cl)cc3)c[nH]c2c(=O)n1CCN1CCN(c2ccccc2Cl)CC1,2.71,> 3500,> 10000
COc1ccccc1N1CCN(CCn2c(=O)[nH]c3[nH]c(-c4ccc(Cl)cc4)cc3c2=O)CC1,4.08,98.4,401
O=c1[nH]c2c(-c3ccccc3)c[nH]c2c(=O)n1CCN1CCN(c2ccccc2Cl)CC1,1.14,37.8,43.1
CC(C)(C)c1cc2[nH]c(=O)n(CCN3CCN(c4ccccc4Cl)CC3)c(=O)c2[nH]1,1.39,46.9,65.1
COc1ccccc1N1CCN(CCn2c(=O)[nH]c3c(-c4ccc(Cl)cc4)c[nH]c3c2=O)CC1,3.36,9.7,32.6
COc1ccccc1N1CCN(CCn2c(=O)[nH]c3cc(C(C)(C)C)[nH]c3c2=O)CC1,1.69,27.7,46.7
